Converted amounts (≈) assume the structure as drawn. Read-outs that look alike come from different tables or passages of the source. Where a SMILES comes first, the peptide text is derived from it. The star is where a group is joined. Lauroyl = CCCCCCCCCCCC(=O)*; Decanoyl = CCCCCCCCCC(=O)*
Key:
Type in all cases: cell-based
human red blood cells = details: 1 h
Experimental: The hemolytic activity of the lipopeptides was determined by exposing human red blood cells (4% v/v) to tested compounds at graded concentrations. Red blood cells were obtained from a healthy donor. EDTA was used to prevent the blood clotting. The plasma was removed via centrifugation and the erythrocytes were washed three times with PBS. The red blood cells were suspended in PBS and incubated with different concentrations of lipopeptides at 37°C for 1 h and centrifuged for 5 min at 1000 × g. The supernatants were transferred to a sterile 96-well plate and hemoglobin release was measured with an Epoch microplate spectrophotometer (BioTek, USA) by recording the absorbance at 550 nm. A 0.1% Triton X-100 solution was used as the positive control (100% of hemolysis) and pure PBS as the negative (0% of hemolysis). Minimum hemolytic concentration (MHC) was taken as the lowest concentration which induced 10% of hemolysis.

[1] = system: Pseudomonas aeruginosa (ATCC 9027); details: ATCC 9027, 24 h
[2] = system: Staphylococcus epidermidis (PCM 2118); details: for MIC Staphylococcus epidermidis: PCM 2118, 18 h; for MBC Staphylococcus epidermidis: PCM 2118, 24 h
Experimental: (§1) The minimum inhibitory concentration (MIC), minimum bactericidal concentration (MBC) and minimum fungicidal concentration (MFC) were determined according to the procedure recommended by the Clinical Laboratory Standards Institute (CLSI). The following reference strains were tested: Gram-negative E. coli (ATCC 25922), K. pneumoniae (ATCC 700603), P. vulgaris (PCM 2668), P. aeruginosa (ATCC 9027), Gram-positive S. aureus (ATCC 25923), S. epidermidis (PCM 2118), B. subtilis (ATCC 6633), E. faecalis (ATCC 29212) and fungi C. albicans (ATCC 10231), C. tropicalis (PCM 2681), and A. brasiliensis (ATCC 16404). All the microorganisms were from the Polish Collection of Microorganisms (Wroclaw, Poland). MIC was determined using a microbroth dilution method with Mueller-Hinton (MH) broth for bacteria and Sabouraud Dextrose broth for fungi (Becton Dickinson, Le Pont de Claix, France). An initial inoculum of 10^5 cfu/mL was used for bacteria and 10^3 cfu/mL for fungi. Polypropylene 96-well plates (Kartell, Noviglio, Italy) were incubated for 18 h at 37°C for bacteria and for 48 h at 25°C for the tested fungi. MIC (μg/mL) was taken as the lowest concentration of the lipopeptide, at which the observable growth was inhibited. […] The experiments were performed in triplicate on three different days.

[3] = system: Escherichia coli (ATCC 25922)
Experimental: as §1

[4] = system: Klebsiella pneumoniae (ATCC 700603); details: for MIC Klebsiella pneumoniae: ATCC 700603, 18 h; for MBC Klebsiella pneumoniae: ATCC 700603, 24 h
Experimental: as §1

[5] = system: Staphylococcus aureus (ATCC 25923)
Experimental: as §1

[6] = system: Pseudomonas aeruginosa (ATCC 9027); details: ATCC 9027, 18 h
Experimental: as §1

[7] = system: Bacillus subtilis (ATCC 6633); details: for MIC Bacillus subtillis: ATCC 6633, 18 h; for MBC Bacillus subtillis: ATCC 6633, 24 h
Experimental: as §1

[8] = system: Aspergillus brasiliensis (ATCC 16404); details: ATCC 16404, 48 h
Experimental: as §1

[9] = system: Candida albicans (ATCC 10231); details: ATCC 10231, 48 h
Experimental: as §1

[10] = system: Enterococcus faecalis (ATCC 29212); details: for MIC Enterococcus fecalis: ATCC 29212, 18 h
Experimental: as §1

[11] = system: Candida tropicalis (PCM 2681); details: PCM 2681, 48 h
Experimental: as §1

[12] = system: Proteus vulgaris (PCM 2668); details: PCM 2668, TFA salt, triplicate; for MIC Proteus vulgaris: Mueller-Hinton broth, 10^5 cfu/mL, 18 h 37°C; for MBC Proteus vulgaris: subculture on Mueller-Hinton II Agar, 24 h 37°C
Experimental: as §1

Row | Structure (SMILES) | Hemolysis HC10 (MHC), concentration of lipopeptide inducing 10% of hemolysis (human red blood cells) [µg/mL] | MBC Pseudomonas aeruginosa [1] [µg/mL] | MIC Staphylococcus epidermidis [2] [µg/mL] | MBC Staphylococcus epidermidis [2] [µg/mL] | MBC Escherichia coli ([3]; ATCC 25922, 24 h) [µg/mL] | MIC Klebsiella pneumoniae [4] [µg/mL] | MBC Klebsiella pneumoniae [4] [µg/mL] | MIC Staphylococcus aureus ([5]; ATCC 25923, 18 h) [µg/mL] | MBC Staphylococcus aureus ([5]; ATCC 25923, 24 h) [µg/mL] | MIC Pseudomonas aeruginosa [6] [µg/mL] | MIC Bacillus subtillis [7] [µg/mL] | MBC Bacillus subtillis [7] [µg/mL] | MFC Aspergillus brasiliensis [8] [µg/mL] | MIC Aspergillus brasiliensis [8] [µg/mL] | MFC Candida albicans [9] [µg/mL] | MIC Candida albicans [9] [µg/mL] | MIC Enterococcus fecalis [10] [µg/mL] | MFC Candida tropicalis [11] [µg/mL] | MIC Candida tropicalis [11] [µg/mL] | MIC Proteus vulgaris [12] [µg/mL] | also measured
1 | CCCCCCCCCCCC(=O)N[C@@H](CCCCN)C(=O)NCC(=O)N[C@@H](CCCCN)C(=O)NCC(N)=O [C12-KGKG-NH2] (Lauroyl-KGKG-NH2) | 256 | 1000 (≈ 1760 µM) | 256 (≈ 449 µM) | 512 (≈ 899 µM) | 2000 (≈ 3510 µM) | 2000 (≈ 3510 µM) | 2000 (≈ 3510 µM) | 2000 (≈ 3510 µM) | 2000 (≈ 3510 µM) | 1000 (≈ 1760 µM) | 64 (≈ 112 µM) | 64 (≈ 112 µM) | 1000 (≈ 1760 µM) | 1000 (≈ 1760 µM) | 2000 (≈ 3510 µM) | 1000 (≈ 1760 µM) | 512 (≈ 899 µM) | 2000 (≈ 3510 µM) | 1000 (≈ 1760 µM) | >2000 | MIC Escherichia coli ([3]; ATCC 25922, 18 h): 2000 µg/mL (≈ 3510 µM); MBC Enterococcus fecalis ([10]; ATCC 29212, 24 h): 512 µg/mL (≈ 899 µM); MBC Proteus vulgaris [12]: >2000 µg/mL
2 | CCCCCCCCCCCC(=O)N[C@@H](CCCCN)C(=O)NCC(=O)N[C@@H](CCCCN)C(N)=O [C12-KGK-NH2] (Lauroyl-Lys-Gly-Lys-NH2) | 1000 | 1000 (≈ 1950 µM) | 64 (≈ 125 µM) | 128 (≈ 250 µM) | 1000 (≈ 1950 µM) | – | 1000 (≈ 1950 µM) | – | 1000 (≈ 1950 µM) | 1000 (≈ 1950 µM) | 512 (≈ 999 µM) | 1000 (≈ 1950 µM) | 2000 (≈ 3900 µM) | 1000 (≈ 1950 µM) | 2000 (≈ 3900 µM) | 2000 (≈ 3900 µM) | – | 2000 (≈ 3900 µM) | 2000 (≈ 3900 µM) | >2000 | –
3 | CCCCCCCCCCCC(=O)N[C@@H](CCCCN)C(=O)N[C@@H](CCCCN)C(=O)N[C@@H](CCCCN)C(N)=O [C12-KKK-NH2] | 512 | – | 64 (≈ 110 µM) | 64 (≈ 110 µM) | 1000 (≈ 1710 µM) | 1000 (≈ 1710 µM) | 1000 (≈ 1710 µM) | 1000 (≈ 1710 µM) | 1000 (≈ 1710 µM) | 512 (≈ 877 µM) | 64 (≈ 110 µM) | 128 (≈ 219 µM) | 512 (≈ 877 µM) | 512 (≈ 877 µM) | 1000 (≈ 1710 µM) | 1000 (≈ 1710 µM) | 512 (≈ 877 µM) | 1000 (≈ 1710 µM) | 1000 (≈ 1710 µM) | >2000 | MBC Enterococcus fecalis ([10]; ATCC 29212, 24 h): 512 µg/mL (≈ 877 µM)
4 | CCCCCCCCCCCC(=O)N[C@@H](CCCCN)C(=O)N[C@@H](CCCCN)C(=O)N[C@@H](CCCCN)C(=O)N[C@@H](CCCCN)C(N)=O [C12-KKKK-NH2] (Lauroyl-KKKK-NH2) | 1000 | – | 64 (≈ 89.9 µM) | 64 (≈ 89.9 µM) | 256 (≈ 360 µM) | – | 1000 (≈ 1400 µM) | 1000 (≈ 1400 µM) | 1000 (≈ 1400 µM) | – | 128 (≈ 180 µM) | 256 (≈ 360 µM) | 256 (≈ 360 µM) | 128 (≈ 180 µM) | 256 (≈ 360 µM) | 256 (≈ 360 µM) | 512 (≈ 719 µM) | 512 (≈ 719 µM) | 256 (≈ 360 µM) | >2000 | MIC Escherichia coli ([3]; ATCC 25922, 18 h): 256 µg/mL (≈ 360 µM); MBC Enterococcus fecalis ([10]; ATCC 29212, 24 h): 512 µg/mL (≈ 719 µM)
5 | CCCCCCCCCCCC(=O)N[C@@H](CCCCN)C(=O)N[C@@H](CCCCN)C(N)=O [C12-KK-NH2] | – | 2000 (≈ 4390 µM) | 64 (≈ 140 µM) | 64 (≈ 140 µM) | 2000 (≈ 4390 µM) | 2000 (≈ 4390 µM) | 2000 (≈ 4390 µM) | 2000 (≈ 4390 µM) | 2000 (≈ 4390 µM) | 2000 (≈ 4390 µM) | 64 (≈ 140 µM) | 128 (≈ 281 µM) | 2000 (≈ 4390 µM) | 2000 (≈ 4390 µM) | 2000 (≈ 4390 µM) | 1000 (≈ 2190 µM) | 512 (≈ 1120 µM) | 2000 (≈ 4390 µM) | 1000 (≈ 2190 µM) | >2000 | MIC Escherichia coli ([3]; ATCC 25922, 18 h): 2000 µg/mL (≈ 4390 µM); MBC Enterococcus fecalis ([10]; ATCC 29212, 24 h): 512 µg/mL (≈ 1120 µM); MBC Proteus vulgaris [12]: >2000 µg/mL
6 | CCCCCCCCCC(=O)N[C@@H](CCCCN)C(=O)NCC(N)=O [C10-KG-NH2] (Decanoyl-Lys-Gly-NH2) | – | 2000 (≈ 5610 µM) | 512 (≈ 1440 µM) | 1000 (≈ 2800 µM) | – | 1000 (≈ 2800 µM) | 2000 (≈ 5610 µM) | – | – | 1000 (≈ 2800 µM) | 512 (≈ 1440 µM) | 512 (≈ 1440 µM) | 2000 (≈ 5610 µM) | 1000 (≈ 2800 µM) | 2000 (≈ 5610 µM) | 1000 (≈ 2800 µM) | 1000 (≈ 2800 µM) | 2000 (≈ 5610 µM) | 1000 (≈ 2800 µM) | >2000 | MIC Escherichia coli ([3]; ATCC 25922, TFA salt, Mueller-Hinton broth, 10^5 cfu/mL, 18 h 37°C, triplicate): >2000 µg/mL; MBC Escherichia coli ([3]; ATCC 25922, TFA salt, subculture on Mueller-Hinton II Agar, 24 h 37°C, triplicate): >2000 µg/mL; MBC Staphylococcus aureus ([5]; ATCC 25923, TFA salt, MIC wells subcultured on Mueller-Hinton II Agar, 24 h 37°C, triplicate): >2000 µg/mL; MIC Staphylococcus aureus ([5]; ATCC 25923, TFA salt, Mueller-Hinton broth, 10^5 cfu/mL, 18 h 37°C, triplicate on three days): >2000 µg/mL; MBC Enterococcus fecalis ([10]; ATCC 29212, TFA salt, subculture on Mueller-Hinton II Agar, 24 h 37°C, triplicate): >1000 µg/mL; MBC Proteus vulgaris [12]: >2000 µg/mL
